Results taken from patent US7521418B2, “Use of a polyene macrolide antifungal agent in combination with a glycopeptide antibacterial agent” (Theravance, Inc., priority 2003, dated 2009).

System: M. circinelloides ATCC 26759
Assay: Checkerboard MIC assay, FICI
Assay type: cell-based, Mucor circinelloides
Settings: combination with Compound 1
Text: The following assay was used to determine the minimum inhibitory concentration (MIC) and fractional inhibitory concentration index (FICI) for combinations of an antifungal agent and a glycopeptide antibacterial agent. This assay and methods for calculating FICI are well known in the art. See, for example, Eliopoulos, E. G. and R. Moellering, Jr. “Antimicrobial Combinations” in Antibiotics in Laboratory Medicine, edited by V. Lorian, 4th Ed., Williams & Wilkins, Baltimore, MD, pp. 330-396 (1996); […] et al., Antimicrobial Agents and Chemotherapy 47(4):1416-1418 (2003); or […] et al., Antimicrobial Agents and Chemotherapy 46(10):3323-3326 (2002). […] The MIC of the glycopeptide antibacterial agent determined from this experiment was used in FIC calculations. […]

| Structure (SMILES) | FICI |
| --- | --- |
| C[C@@H]1[C@H](O)[C@@H](C)/C=C/C=C/C=C/C=C/C=C/C=C/C=C/[C@H](O[C@@H]2O[C@H](C)[C@@H](O)[C@H](N)[C@@H]2O)C[C@@H]2O[C@](O)(C[C@@H](O)C[C@@H](O)[C@H](O)CC[C@@H](O)C[C@@H](O)CC(=O)O[C@H]1C)C[C@H](O)[C@H]2C(=O)O [Amphotericin B] | 0.26 |
| C[C@@H]1[C@H](O)[C@@H](C)/C=C/C=C/CC/C=C/C=C/C=C/C=C/C(O[C@H]2O[C@H](C)[C@@H](O)[C@H](N)[C@@H]2O)CC2O[C@](O)(CC(O)C(O)CCC(O)CC(O)CC(O)CC(=O)O[C@H]1C)CC(O)C2C(=O)O (some centres unmarked) [Nystatin] | 0.28 |
